We go through 40 molecules from US4515793A, “Phenylpiperazines which are useful in the treatment of schistosomiasis” (Edna McConnell Clark Foundation, priority 1983, dated 1985).

In this experiment the test system is S. mansoni. As to the kind of experiment: antischistosomal activity in mice (live worm burden, single oral dose). The experiment is classed as in vivo, S. mansoni (host: CD1 white female mice). As to conditions: Schistosoma mansoni, single oral dose, read-out: % Reduction Live Worm Burden; for inhibition in vivo at 40 mg/kg / inhibition in vivo at 125 mg/kg / inhibition in vivo at 20 mg/kg: mice. On the procedure:
Tests were conducted to determine the antischistosomal activity in mice and monkeys. The results of the mice tests are reported in Tables 1 to 4 along with the chemical identifications of the compounds synthesized and tested.
The mice tests were conducted as follows:
A. Preinfection Procedures: Purina Laboratory chow (Ralston-Purina) and water were given ad libitum. All mice were housed in hanging stainless steel cages, without bedding, five per cage. They were kept in a ward with an ambient temperature of 75° F. and a relative humidity of 50-55%. Therapeutic treatment was given on Day 40 post-infection.
B. Experimental Procedures: CD1 white female mice were exposed by the tail immersion method for 30 minutes to 80 individually counted S. mansoni cercariae (WRAIR laboratory strain). The cercariae were obtained from pools of no less than 25 Biophalaria glabrata snails. Each experiment consisted of 118 mice divided into infected/water treated and infected/vehicle-treated controls, and infected/drug-treated groups (two dose levels) for six compounds. Groups of 12 mice each were treated with a compound synthesized and provided by the Warner-Lambert Company, Ann Arbor, Mich. at two dose levels. At the same time, five mice were sacrificed to establish worm burdens as infection controls. Three weeks after treatment, all remaining mice were sacrificed and perfused. Gross pathology (liver and intestines) was noted and graded (0 to +3). Worm burdens were determined and the sex of the worms recorded. Following perfusions the liver and intestines were removed and examined for the presence of […] or dead worms. […] Drugs were administered orally in Emulphor EL.
C. Drug Treatment: Treatment consisted of a single oral dose. Each drug was give initially at two dose levels, 40 mg/kg and 125 mg/kg, SID×1.
D. Criteria Used to Evaluate Therapeutic Effectiveness:
Evaluation of activity was determined by examination of the animals at 23 to 28 days after treatment. The schistosomes remaining alive after treatment were counted in the perfusates of the hepatic portal system and in press preparation of the livers. In the same preparations, the relative numbers of dead and/or encapsulated (i.e., worms may or may not be dead) parasites and the relative degree of pathology were ascertained. The efficacy of each treatment was that percentage of the control infection represented by the difference between numbers of parasites recovered from control (H2 O+vehicle) and treated animals. Thus, % efficacy is: [formula]

The mark [1] stands for this setting: mice (footnote, 125 mg/kg column).

Each structure is given as a SMILES string.

Consider `O=C(CN1CCN(c2ccc(CO)c(Cl)c2)CC1)c1ccc(Cl)c([N+](=O)[O-])c1` [Cpd. 14], for which the inhibition in vivo at 40 mg/kg came out at 56%. The inhibition in vivo at 160 mg/kg under setting [1] is 99%.
For the molecule `O=C(CN1CCN(c2ccc(CO)c(Cl)c2)CC1)c1ccc(I)cc1` [Cpd. 6], the inhibition in vivo at 40 mg/kg came to 62% and the inhibition in vivo at 125 mg/kg stood at 83%.
As for `Nc1cc(C(=O)CCN2CCN(c3ccc(CO)c(Cl)c3)CC2)ccc1Cl` [Cpd. 37], the inhibition in vivo at 20 mg/kg is 81%, the inhibition in vivo at 40 mg/kg came to 83% and the inhibition in vivo at 125 mg/kg was 95%.
Turning to `O=C(CCCN1CCN(c2ccc(CO)c(Cl)c2)CC1)c1ccc(Cl)cc1` [Cpd. 59, 1-(4-Chlorophenyl)-4-[4-[3-chloro-4-(hydroxymethyl)phenyl]-1-piperazinyl]-1-butanone], the inhibition in vivo at 40 mg/kg amounted to 30% and the inhibition in vivo at 125 mg/kg was determined as 68%.
Consider `O=C(CN1CCN(c2ccc(CO)c(Cl)c2)CC1)c1ccsc1` [compound 51], for which the inhibition in vivo at 40 mg/kg was -6% and the inhibition in vivo at 125 mg/kg is 83%.
With `O=C(CCN1CCN(c2ccc(CO)c(Cl)c2)CC1)c1ccc(C2CCCCC2)cc1` [compound 33], the inhibition in vivo at 40 mg/kg stood at 79% and the inhibition in vivo at 125 mg/kg was found to be 93%.
Taken in the same sequence, the figures for `O=C(CN1CCN(c2ccc(CO)c(Cl)c2)CC1)c1ccc(Br)s1` [compound 47] were 35% and 93%.
In the case of `Cc1cc(C)c(C(=O)CN2CCN(c3ccc(CO)c(Cl)c3)CC2)cc1C` [compound 17], the inhibition in vivo at 40 mg/kg amounted to 29%. The inhibition in vivo at 160 mg/kg under setting [1] stood at 71%.
On to `O=C(CN1CCN(c2ccc(CO)c(Cl)c2)CC1)c1ccco1` [compound 46], for which, under “50 mg/kg, mice (footnote, 40 mg/kg)”, the inhibition in vivo at 50 mg/kg is 31%. In addition, the inhibition in vivo at 156 mg/kg (156 mg/kg, mice (footnote, 125 mg/kg column)) came out at 83%.
Turning to `O=C(CCN1CCN(c2ccc(CO)c(Cl)c2)CC1)c1ccc(Cl)cc1Cl` [compound 39], the inhibition in vivo at 20 mg/kg worked out at 70%, the inhibition in vivo at 40 mg/kg came to 86% and the inhibition in vivo at 125 mg/kg is 94%.
Take `COc1ccc(C(=O)CCN2CCN(c3ccc(CO)c(Cl)c3)CC2)cc1` [compound 34]: the inhibition in vivo at 40 mg/kg came out at 39% and the inhibition in vivo at 125 mg/kg is 93%.
Consider `O=C(CN1CCN(c2ccc(CO)c(Cl)c2)CC1)c1cc(Cl)ccc1Cl` [compound 20], for which the inhibition in vivo at 20 mg/kg is 72% and the inhibition in vivo at 40 mg/kg stood at 65%. Under setting [1], the inhibition in vivo at 160 mg/kg came out at 99%.
Take `Nc1cccc(C(=O)CN2CCN(c3ccc(CO)c(Cl)c3)CC2)c1` [Cpd. 25, 2-[4-[3-Chloro-4-(hydroxymethyl)phenyl]-1-piperazinyl]-1-(3-aminophenyl)-ethanone]: the inhibition in vivo at 40 mg/kg was -11% and the inhibition in vivo at 125 mg/kg was found to be 46%.
For the molecule `Cc1ccc(C(=O)CCN2CCN(c3ccc(CO)c(Cl)c3)CC2)cc1` [compound 30], the inhibition in vivo at 40 mg/kg came to 75% and the inhibition in vivo at 125 mg/kg was 96%.
Take `CC(C)(C)c1ccc(C(=O)CN2CCN(c3ccc(CO)c(Cl)c3)CC2)cc1` [compound 11]: the inhibition in vivo at 40 mg/kg worked out at 16%. Further, the inhibition in vivo at 160 mg/kg under setting [1] worked out at 59%.
As for `O=C(CN1CCN(c2ccc(CO)c(Cl)c2)CC1)c1cc(Cl)cc(Cl)c1` [compound 16], the inhibition in vivo at 40 mg/kg was 64% and the inhibition in vivo at 125 mg/kg worked out at 89%.
As to `O=C(CN1CCN(c2ccc(CO)c(Cl)c2)CC1)c1cc(Cl)c(Cl)cc1Cl` [compound 13], the inhibition in vivo at 20 mg/kg was 53%, the inhibition in vivo at 40 mg/kg was determined as 86% and the inhibition in vivo at 125 mg/kg turned out to be 98%.
Consider `Nc1cc(C(=O)CN2CCN(c3ccc(CO)c(Cl)c3)CC2)ccc1Cl` [compound 26], for which the inhibition in vivo at 40 mg/kg was -12% and the inhibition in vivo at 125 mg/kg amounted to 45%.
Regarding `O=C(CN1CCN(c2ccc(CO)c(Cl)c2)CC1)c1ccc(Cl)cc1Cl` [Cpd. 3], the inhibition in vivo at 20 mg/kg is 62%, the inhibition in vivo at 40 mg/kg turned out to be 81% and the inhibition in vivo at 125 mg/kg was determined as 94%.
Taken in the same sequence, the figures for `CS(=O)(=O)c1ccc(C(=O)CCN2CCN(c3ccc(CO)c(Cl)c3)CC2)cc1` [Cpd. 32] were 43%, 84% and 91%.
For the molecule `O=C(CN1CCN(c2ccc(CO)c(Cl)c2)CC1)c1ccc(I)s1` [compound 48], the inhibition in vivo at 40 mg/kg is -20% and the inhibition in vivo at 125 mg/kg came to 30%.
The like results for `N#Cc1ccc(C(=O)CN2CCN(c3ccc(CO)c(Cl)c3)CC2)cc1` [compound 23] were, in that order, 40% and 90%.
Take `COc1cc(C(=O)CN2CCN(c3ccc(CO)c(Cl)c3)CC2)cc(OC)c1OC` [compound 10]: the inhibition in vivo at 40 mg/kg is -23%. Under setting [1], the inhibition in vivo at 160 mg/kg amounted to 13%.
`Cc1csc(C(=O)CN2CCN(c3ccc(CO)c(Cl)c3)CC2)c1` [compound 52]: the inhibition in vivo at 40 mg/kg amounted to 25% and the inhibition in vivo at 125 mg/kg was 69%.
Taken in the same sequence, the figures for `O=C(CCN1CCN(c2ccc(CO)c(Cl)c2)CC1)c1ccc(Cl)c([N+](=O)[O-])c1` [Cpd. 35] were 79% and 98%.
Taken in the same sequence, the figures for `O=C(CN1CCN(c2ccc(CO)c(Cl)c2)CC1)c1ccc2sc3ccccc3c2c1` [compound 56] were 51% and 77%.
As to `O=C(CCN1CCN(c2ccc(CO)c(Cl)c2)CC1)c1ccc(-c2ccccc2)cc1` [compound 44], the inhibition in vivo at 20 mg/kg came out at 69%, the inhibition in vivo at 40 mg/kg was 89% and the inhibition in vivo at 125 mg/kg amounted to 97%.
Taken in the same sequence, the figures for `O=C(CCN1CCN(c2ccc(CO)c(Cl)c2)CC1)c1ccc(F)cc1F` [compound 40] were 71%, 86% and 99%.
`Cc1ccc(C(=O)CCCN2CCN(c3ccc(CO)c(Cl)c3)CC2)cc1C` [compound 60]: the inhibition in vivo at 40 mg/kg is 67% and the inhibition in vivo at 125 mg/kg was found to be 88%.
For `COc1ccc(C(=O)CN2CCN(c3ccc(CO)c(Cl)c3)CC2)c(OC)c1OC` [compound 9], the inhibition in vivo at 40 mg/kg was 13% and the inhibition in vivo at 125 mg/kg is 30%.
Taken in the same sequence, the figures for `O=C(CN1CCN(c2ccc(CO)c(Cl)c2)CC1)c1cccc2ccccc12` [compound 24] were 3% and 64%.
Taken in the same sequence, the figures for `O=C(CN1CCN(c2ccc(CO)c(Cl)c2)CC1)c1ccc(S(=O)(=O)N2CCCCC2)cc1` [Cpd. 4] were -10% and 66%.
As for `CC(O)(CN1CCN(c2ccc(CO)c(Cl)c2)CC1)c1ccc(Cl)cc1` (stereo not shown) [Cpd. 61], the inhibition in vivo at 20 mg/kg is 68%, the inhibition in vivo at 40 mg/kg came out at 88% and the inhibition in vivo at 125 mg/kg was determined as 96%.
Regarding `O=C(CN1CCN(c2ccc(CO)c(Cl)c2)CC1)c1ccc(F)cc1` [Cpd. 2], the inhibition in vivo at 40 mg/kg is 19% and the inhibition in vivo at 125 mg/kg was 61%.
Taken in the same sequence, the figures for `O=C(CN1CCN(c2ccc(CO)c(Cl)c2)CC1)c1ccc2c(c1)Sc1ccccc1S2` [compound 55] were 54% and 68%.
Consider `O=C(CCN1CCN(c2ccc(CO)c(Cl)c2)CC1)c1cc(Cl)ccc1Cl` [compound 43], for which the inhibition in vivo at 20 mg/kg stood at 84%, the inhibition in vivo at 40 mg/kg is 80% and the inhibition in vivo at 125 mg/kg was 98%.
The like results for `O=C(CCN1CCN(c2ccc(CO)c(Cl)c2)CC1)c1ccco1` [Cpd. 57] were, in that order, 60%, 85% and 98%.
As for `Cc1ccsc1C(=O)CN1CCN(c2ccc(CO)c(Cl)c2)CC1` [compound 50], the inhibition in vivo at 40 mg/kg was -12% and the inhibition in vivo at 125 mg/kg was found to be 28%.
The like results for `O=C(CN1CCN(c2ccc(CO)c(Cl)c2)CC1)c1ccc2ccccc2c1` [compound 19] were, in that order, -37% and 17%.
Regarding `CSc1ccc(C(=O)CCN2CCN(c3ccc(CO)c(Cl)c3)CC2)cc1` [Cpd. 31], the inhibition in vivo at 40 mg/kg turned out to be 73% and the inhibition in vivo at 125 mg/kg was determined as 93%.
